# Experimental data reported in patent US9486506B2 (Novo Nordisk A/S, priority 2011, dated 2016).
# Numbered stars: 1 amine (or outer) side, 2 acyl side, 3 side chain; on linkers, the order of the positions; unused ones are H or OH. Side chains are listed from the residue outwards. Peptide text beside a SMILES is read from it. * marks the point of attachment. C18 diacid = O=C(O)CCCCCCCCCCCCCCCCC(=O)*; C16 diacid = O=C(O)CCCCCCCCCCCCCCC(=O)*; γGlu = O=C(O)[C@H](CCC(=O)[*:2])N[*:1]; AEEA = NCCOCCOCC(=O)O
# Assays:
# glucagon receptor = target: T1, glucagon receptor (Homo sapiens, UniProt P47871); experiment: Assay (I) Glucagon activity (cAMP biosensor, FLIPR); assay type: cell-based
# T1 construct: expressed in transfected cells
# [1] = Assay (X) Chemical stability assessment by RP-UPLC; assay type: physicochemical; details: pH 8.15, 14 days at 37° C. vs 5° C., 333 μM
# T1 sequence (P47871 26-477): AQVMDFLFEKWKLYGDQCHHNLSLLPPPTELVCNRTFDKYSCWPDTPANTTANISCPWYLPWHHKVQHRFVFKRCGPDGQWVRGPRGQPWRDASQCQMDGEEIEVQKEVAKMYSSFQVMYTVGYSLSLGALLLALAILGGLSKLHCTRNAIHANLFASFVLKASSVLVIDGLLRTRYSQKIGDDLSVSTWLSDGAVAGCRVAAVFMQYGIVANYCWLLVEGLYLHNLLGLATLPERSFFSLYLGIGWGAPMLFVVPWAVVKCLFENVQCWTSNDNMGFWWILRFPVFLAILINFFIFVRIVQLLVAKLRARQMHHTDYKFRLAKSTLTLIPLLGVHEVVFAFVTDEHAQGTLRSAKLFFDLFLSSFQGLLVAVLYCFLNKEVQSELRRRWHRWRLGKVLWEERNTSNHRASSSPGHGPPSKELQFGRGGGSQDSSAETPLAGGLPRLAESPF
Compound,EC50 (glucagon receptor),Chemical stability [Purity loss/14 days 37 C.] [1]
"CC(C)C[C@H](NC(=O)[C@H](Cc1ccc(O)cc1)NC(=O)[C@H](CCCNC(=N)N)NC(=O)[C@H](CO)NC(=O)[C@H](Cc1ccc(O)cc1)NC(=O)[C@H](CC(=O)O)NC(=O)[C@H](CO)NC(=O)[C@@H](NC(=O)[C@H](Cc1ccccc1)NC(=O)[C@@H](NC(=O)CNC(=O)[C@H](CCC(N)=O)NC(=O)[C@H](CO)NC(=O)[C@@H](N)Cc1c[nH]cn1)[C@@H](C)O)[C@@H](C)O)C(=O)N[C@@H](CC(=O)O)C(=O)N[C@@H](C)C(=O)N[C@@H](CCCNC(=N)N)C(=O)N[C@@H](CCCNC(=N)N)C(=O)N[C@@H](C)C(=O)N[C@@H](CCC(N)=O)C(=O)N[C@@H](CC(=O)O)C(=O)N[C@@H](Cc1ccccc1)C(=O)N[C@H](C(=O)N[C@@H](CCCCNC(=O)CC[C@H](NC(=O)CC[C@H](NC(=O)CC[C@H](NC(=O)CCCCCCCCCCCCCCCCC(=O)O)C(=O)O)C(=O)O)C(=O)O)C(=O)N[C@@H](Cc1c[nH]c2ccccc12)C(=O)N[C@@H](CC(C)C)C(=O)N[C@@H](CC(C)C)C(=O)N[C@@H](CO)C(=O)N[C@H](C(=O)O)[C@@H](C)O)C(C)C [Example 92, N^ε24-[(4S)-4-carboxy-4-[[(4S)-4-carboxy-4-[[(4S)-4-carboxy-4-(17-carboxyheptadecanoylamino)butanoyl]amino]butanoyl]amino]butanoyl]-[Arg12,Ala16,Lys24,Leu27,Ser28]-Glucagon] (H-HSQGTFTSDYSRYLDARRAQDFVK([γGlu-γGlu-γGlu-C18 diacid])WLLST-OH)",0.066 nM,6.5%
"CC(C)C[C@H](NC(=O)[C@H](Cc1ccc(O)cc1)NC(=O)[C@H](CCCCN)NC(=O)[C@H](CO)NC(=O)[C@H](Cc1ccc(O)cc1)NC(=O)[C@H](CC(=O)O)NC(=O)[C@H](CO)NC(=O)[C@@H](NC(=O)[C@H](Cc1ccccc1)NC(=O)[C@@H](NC(=O)CNC(=O)[C@H](CCC(N)=O)NC(=O)[C@H](CO)NC(=O)[C@@H](N)Cc1c[nH]cn1)[C@@H](C)O)[C@@H](C)O)C(=O)N[C@@H](CC(=O)O)C(=O)N[C@@H](CCC(=O)O)C(=O)N[C@@H](CCCNC(=N)N)C(=O)N[C@@H](CCCNC(=N)N)C(=O)N[C@@H](C)C(=O)N[C@@H](CCC(N)=O)C(=O)N[C@@H](CC(=O)O)C(=O)N[C@@H](Cc1ccccc1)C(=O)N[C@H](C(=O)N[C@@H](CCCCNC(=O)CC[C@H](NC(=O)CC[C@H](NC(=O)COCCOCCNC(=O)COCCOCCNC(=O)CC[C@H](NC(=O)CCCCCCCCCCCCCCC(=O)O)C(=O)O)C(=O)O)C(=O)O)C(=O)N[C@@H](Cc1c[nH]c2ccccc12)C(=O)N[C@@H](CC(C)C)C(=O)N[C@@H](CC(C)C)C(=O)N[C@@H](CO)C(=O)N[C@H](C(=O)O)[C@@H](C)O)C(C)C [Example 93, N^ε24-[(4S)-4-carboxy-4-[[(4S)-4-carboxy-4-[[2-[2-[2-[[2-[2-[2-[[(4S)-4-carboxy-4-(15-carboxypentadecanoylamino)butanoyl]amino]ethoxy]ethoxy]acetyl]amino]ethoxy]ethoxy]acetyl]amino]butanoyl]amino]butanoyl]-[Glu16,Lys24,Leu27,Ser28]-Glucagon] (H-HSQGTFTSDYSKYLDERRAQDFVK([γGlu-γGlu-AEEA-AEEA-γGlu-C16 diacid])WLLST-OH; N-terminus and C-terminus assumed)",0.017 nM,14%
"CC(C)C[C@H](NC(=O)[C@H](Cc1ccc(O)cc1)NC(=O)[C@H](CCCNC(=N)N)NC(=O)[C@H](CO)NC(=O)[C@H](Cc1ccc(O)cc1)NC(=O)[C@H](CC(=O)O)NC(=O)[C@H](CO)NC(=O)[C@@H](NC(=O)[C@H](Cc1ccccc1)NC(=O)[C@@H](NC(=O)CNC(=O)[C@H](CCC(N)=O)NC(=O)[C@H](CO)NC(=O)[C@@H](N)Cc1c[nH]cn1)[C@@H](C)O)[C@@H](C)O)C(=O)N[C@@H](CC(=O)O)C(=O)N[C@@H](CCC(=O)O)C(=O)N[C@@H](CCCNC(=N)N)C(=O)N[C@@H](CCCNC(=N)N)C(=O)N[C@@H](C)C(=O)N[C@@H](CCC(N)=O)C(=O)N[C@@H](CC(=O)O)C(=O)N[C@@H](Cc1ccccc1)C(=O)N[C@H](C(=O)N[C@@H](CCCCNC(=O)CC[C@H](NC(=O)CC[C@H](NC(=O)COCCOCCNC(=O)COCCOCCNC(=O)CC[C@H](NC(=O)CCCCCCCCCCCCCCC(=O)O)C(=O)O)C(=O)O)C(=O)O)C(=O)N[C@@H](Cc1c[nH]c2ccccc12)C(=O)N[C@@H](CC(C)C)C(=O)N[C@@H](CC(C)C)C(=O)N[C@@H](CO)C(=O)N[C@H](C(=O)O)[C@@H](C)O)C(C)C [Example 94, N^ε24-[(4S)-4-carboxy-4-[[(4S)-4-carboxy-4-[[2-[2-[2-[[2-[2-[2-[[(4S)-4-carboxy-4-(15-carboxypentadecanoylamino)butanoyl]amino]ethoxy]ethoxy]acetyl]amino]ethoxy]ethoxy]acetyl]amino]butanoyl]amino]butanoyl]-[Arg12,Glu16,Lys24,Leu27,Ser28]-Glucagon] (H-HSQGTFTSDYSRYLDERRAQDFVK([γGlu-γGlu-AEEA-AEEA-γGlu-C16 diacid])WLLST-OH; N-terminus and C-terminus assumed)",0.029 nM,8.8%
"CC(C)C[C@H](NC(=O)[C@H](Cc1c[nH]c2ccccc12)NC(=O)[C@H](CCCCNC(=O)CC[C@H](NC(=O)CC[C@H](NC(=O)COCCOCCNC(=O)COCCOCCNC(=O)CC[C@H](NC(=O)CCCCCCCCCCCCCCC(=O)O)C(=O)O)C(=O)O)C(=O)O)NC(=O)[C@@H](NC(=O)[C@H](Cc1ccccc1)NC(=O)[C@H](CC(=O)O)NC(=O)[C@H](CCC(N)=O)NC(=O)[C@H](C)NC(=O)[C@H](CCCNC(=N)N)NC(=O)[C@H](CCCNC(=N)N)NC(=O)[C@@H](NC(=O)[C@H](CC(=O)O)NC(=O)[C@H](CC(C)C)NC(=O)[C@H](Cc1ccc(O)cc1)NC(=O)[C@H](CCCCN)NC(=O)[C@H](CO)NC(=O)[C@H](Cc1ccc(O)cc1)NC(=O)[C@H](CC(=O)O)NC(=O)[C@H](CO)NC(=O)[C@@H](NC(=O)[C@H](Cc1ccccc1)NC(=O)[C@@H](NC(=O)CNC(=O)[C@H](CCC(N)=O)NC(=O)[C@H](CO)NC(=O)[C@@H](N)Cc1c[nH]cn1)[C@@H](C)O)[C@@H](C)O)C(C)C)C(C)C)C(=O)N[C@@H](CC(C)C)C(=O)N[C@@H](CO)C(=O)N[C@H](C(=O)O)[C@@H](C)O [Example 95, N^ε24-[(4S)-4-carboxy-4-[[(4S)-4-carboxy-4-[[2-[2-[2-[[2-[2-[2-[[(4S)-4-carboxy-4-(15-carboxypentadecanoylamino)butanoyl]amino]ethoxy]ethoxy]acetyl]amino]ethoxy]ethoxy]acetyl]amino]butanoyl]amino]butanoyl]-[Val16,Lys24,Leu27,Ser28]-Glucagon] (H-HSQGTFTSDYSKYLDVRRAQDFVK([γGlu-γGlu-AEEA-AEEA-γGlu-C16 diacid])WLLST-OH; N-terminus and C-terminus assumed)",0.009 nM,5.1%
"CC(C)C[C@H](NC(=O)[C@H](Cc1ccc(O)cc1)NC(=O)[C@H](CCCNC(=N)N)NC(=O)[C@H](CO)NC(=O)[C@H](Cc1ccc(O)cc1)NC(=O)[C@H](CC(=O)O)NC(=O)[C@H](CO)NC(=O)[C@@H](NC(=O)[C@H](Cc1ccccc1)NC(=O)[C@@H](NC(=O)CNC(=O)[C@H](CCC(N)=O)NC(=O)[C@H](CO)NC(=O)[C@@H](N)Cc1c[nH]cn1)[C@@H](C)O)[C@@H](C)O)C(=O)N[C@@H](CC(=O)O)C(=O)N[C@@H](C)C(=O)N[C@@H](CCCNC(=N)N)C(=O)N[C@@H](CCCNC(=N)N)C(=O)N[C@@H](C)C(=O)N[C@@H](CCC(N)=O)C(=O)N[C@@H](CC(=O)O)C(=O)N[C@@H](Cc1ccccc1)C(=O)N[C@H](C(=O)N[C@@H](CCCCNC(=O)CC[C@H](NC(=O)CC[C@H](NC(=O)CC[C@H](NC(=O)CC[C@H](NC(=O)CCCCCCCCCCCCCCCCC(=O)O)C(=O)O)C(=O)O)C(=O)O)C(=O)O)C(=O)N[C@@H](Cc1c[nH]c2ccccc12)C(=O)N[C@@H](CC(C)C)C(=O)N[C@@H](CC(C)C)C(=O)N[C@@H](CO)C(=O)N[C@H](C(=O)O)[C@@H](C)O)C(C)C [Example 96, N^ε24-[(4S)-4-carboxy-4-[[(4S)-4-carboxy-4-[[(4S)-4-carboxy-4-[[(4S)-4-carboxy-4-(17-carboxyheptadecanoylamino)butanoyl]amino]butanoyl]amino]butanoyl]amino]butanoyl]-[Arg12,Ala16,Lys24,Leu27,Ser28]-Glucagon] (H-HSQGTFTSDYSRYLDARRAQDFVK([γGlu-γGlu-γGlu-γGlu-C18 diacid])WLLST-OH; N-terminus and C-terminus assumed)",0.062 nM,4.5%
